From PMC3947464 (ChemMedChem, 2013) come the findings set out here.

By IC50 is commonly meant the concentration at which inhibition is half-maximal.

For one data set, the system named is U937 cells. In words: MTT anti-proliferation assay, U937. It counts as cell-based. The note with it: Homo sapiens, U-937, 48 h, read-out: IC50 tumor cell growth inhibition U937. (Tetrazolium assays rely on reduction of a dye to a coloured formazan, in cell work by metabolically active cells.)
The subject of a further data set is K562 cells. In words: MTT anti-proliferation assay, K562. It counts as cell-based. The note with it: Homo sapiens, K562, 48 h, read-out: IC50 tumor cell growth inhibition K562.
In the next data set the test system is HL60 cells. Description: MTT anti-proliferation assay, HL60. The note with it: Homo sapiens, HL-60, 48 h, read-out: IC50 tumor cell growth inhibition HL60. Type of data set: cell-based.
The test system of a further data set is MCF7 cells. Description: MTT anti-proliferation assay, MCF7. Type of data set: cell-based. The note with it: Homo sapiens, MCF7, 48 h, read-out: IC50 tumor cell growth inhibition MCF7.
A further data set relates to PC3 cells. In words: MTT anti-proliferation assay, PC3. It counts as cell-based. The note with it: Homo sapiens, PC-3, 48 h, read-out: IC50 tumor cell growth inhibition PC3.
Data set [1] deals with U937 cell line. Description: Western blot of acetylated histone H3, H4, p21 and acetylated tubulin in U937. Type of data set: cell-based, Human. The note with it: U937, 1 µM; for cell permeability and intracellular HDAC inhibition: 6h and 24h, western blot; for acetylated tubulin level, 24h: after 24h. A general note: A western blot detects proteins with antibodies after separation by electrophoresis.

For data set [2], the system named is U937 cell line. In words: Western blot of c-Raf, p-Erk, Erk, p-Akt, Akt in U937. Type of data set: cell-based, Human. The note with it: U937, 1 µM, 24h.
A further data set relates to U937 xenograft. Description: In vivo antitumor assay against U937 xenograft. Further details: species or system athymic nude mice. To be noted: 100 mg/kg/d intragastric, 16 days; for mean weight of tumors: negative control 2.66 g.
Data set [3] can be described thus: Body weight and organ toxicity in the U937 xenograft study. To be noted: 100 mg/kg/d intragastric, measured every two days. It counts as in vivo.
Another data set in a line: Water solubility. It counts as physicochemical. To be noted: compared among the derived molecules.

Turning to `O=C(NO)c1ccc(NC(=O)[C@@H](NC(=O)c2ccc3ccccc3c2)c2ccccc2)cc1` [Compound D3, (S)-N-(2-((4-(hydroxycarbamoyl)phenyl)amino)-2-oxo-1-phenylethyl)-2-naphthamide], the IC50 in the data set with U937 cells amounted to 1320 ± 70 nM; in the data set on K562 cells, 1190 ± 40 nM; with HL60 cells, 3150 ± 130 nM; with MCF7 cells, 2920 ± 150 nM; in the data set on PC3 cells, 3770 ± 270 nM. Further, the “cell permeability and intracellular HDAC inhibition” value with U937 cell line [1] is “cell permeable and can inhibit intracellular and even nuclear HDACs”. Further, the “acetylated tubulin level, 24h” value in the data set on U937 cell line [1] is “still significant”. For the same compound, the p-Akt level result in the data set on U937 cell line [2] was “significantly decreased”.
In the case of `O=C(NO)c1ccc(NC(=O)[C@@H](NC(=O)c2ccc(F)cc2)c2ccccc2)cc1` [Compound D4, (S)-4-fluoro-N-(2-((4-(hydroxycarbamoyl)phenyl)amino)-2-oxo-1-phenylethyl)benzamide], the IC50 stood at 1640 ± 80 nM in the data set with U937 cells; 1590 ± 60 nM in the data set with K562 cells; 4550 ± 210 nM in the data set with HL60 cells; 2040 ± 170 nM in the data set with MCF7 cells; 5880 ± 360 nM in the data set on PC3 cells.
For `O=C(NO)c1ccc(NC(=O)[C@@H](NS(=O)(=O)c2cccc3ccccc23)c2ccccc2)cc1` [Compound D5, (S)-N-hydroxy-4-(2-(naphthalene-1-sulfonamido)-2-phenylacetamido)benzamide], the IC50 in the data set on U937 cells amounted to 1630 ± 90 nM; in the data set with K562 cells it was 930 ± 20 nM; with HL60 cells, 2880 ± 160 nM; in the data set with MCF7 cells it was 8660 ± 730 nM; in the data set on PC3 cells, 10100 ± 570 nM. For the same compound, in the data set with U937 cell line [1], the “cell permeability and intracellular HDAC inhibition” value was “cell permeable and can inhibit intracellular and even nuclear HDACs”. The “acetylated tubulin level, 24h” value with U937 cell line [1] was “still significant”.
Regarding `O=C(NO)c1ccc(NC(=O)[C@@H](NC(=O)c2ccccc2)c2ccccc2)cc1` [Compound D7, (S)-4-(2-benzamido-2-phenylacetamido)-N-hydroxybenzamide], the IC50 is 1770 ± 60 nM with U937 cells; 1470 ± 70 nM in the data set on K562 cells; 2020 ± 150 nM in the data set with HL60 cells; 10800 ± 930 nM in the data set with MCF7 cells; 5670 ± 350 nM in the data set on PC3 cells.
With `COc1ccccc1C(=O)N[C@H](C(=O)Nc1ccc(C(=O)NO)cc1)c1ccccc1` [Compound D11, (S)-N-(2-((4-(hydroxycarbamoyl)phenyl)amino)-2-oxo-1-phenylethyl)-2-methoxybenzamide], the IC50 was determined as 1710 ± 30 nM in the data set with U937 cells; 3160 ± 110 nM in the data set with K562 cells; 780 ± 20 nM in the data set on HL60 cells; 8230 ± 320 nM in the data set on MCF7 cells; 20500 ± 1730 nM with PC3 cells.
As to `COc1ccc(C(=O)N[C@H](C(=O)Nc2ccc(C(=O)NO)cc2)c2ccccc2)cc1` [Compound D12, (S)-N-hydroxy-4-(2-(4-methoxybenzamido)-2-phenylacetamido)benzamide], the IC50 in the data set on U937 cells stood at 1550 ± 40 nM; in the data set on K562 cells, 1930 ± 120 nM; in the data set with HL60 cells it was 1800 ± 90 nM; in the data set on MCF7 cells, 6280 ± 330 nM; with PC3 cells, 3000 ± 150 nM.
Regarding `O=C(NO)c1ccc(NC(=O)[C@@H](NC(=O)c2cccc(Br)c2)c2ccccc2)cc1` [Compound D13, (S)-3-bromo-N-(2-((4-(hydroxycarbamoyl)phenyl)amino)-2-oxo-1-phenylethyl)benzamide], the IC50 turned out to be 1390 ± 30 nM with U937 cells; 1580 ± 60 nM in the data set with K562 cells; 1530 ± 40 nM with HL60 cells; 9710 ± 440 nM in the data set on MCF7 cells; 31600 ± 2330 nM in the data set with PC3 cells. Also, the “cell permeability and intracellular HDAC inhibition” value in the data set with U937 cell line [1] was “cell permeable and can inhibit intracellular and even nuclear HDACs”. Also, the “acetylated tubulin level, 24h” value in the data set on U937 cell line [1] is given as “still significant”.
In the case of `CN(C)c1cccc2c(S(=O)(=O)N[C@H](C(=O)Nc3ccc(C(=O)NO)cc3)c3ccccc3)cccc12` [Compound D17, (S)-4-(2-(5-(dimethylamino)naphthalene-1-sulfonamido)-2-phenylacetamido)-N-hydroxybenzamide], the IC50 with U937 cells was determined as 1240 ± 20 nM; in the data set with K562 cells, 700 ± 10 nM; in the data set on HL60 cells it was 3660 ± 130 nM; in the data set with MCF7 cells, 5340 ± 220 nM; with PC3 cells, 3310 ± 160 nM. For the same compound, in the data set on U937 xenograft, the “inhibitory ratio (tumor weight)” value is 53.57%. For the same compound, the “mean weight of tumors” value in the data set with U937 xenograft turned out to be 1.24 g. In data set [3], the “mice body weight loss” value was “No evidence of mice body weight (measured every two days) loss”. Also, the water solubility entry in the data set “Water solubility” is recorded as “best water solubility”. Besides, in the data set with U937 cell line [1], the “cell permeability and intracellular HDAC inhibition” value was “cell permeable and can inhibit intracellular and even nuclear HDACs”. Further, in the data set on U937 cell line [1], the “acetylated tubulin level, 24h” value was “reduced”. Also, the p-Akt level entry in the data set with U937 cell line [2] was “significantly decreased”.
On to `COc1ccccc1NC(=O)N[C@H](C(=O)Nc1ccc(C(=O)NO)cc1)c1ccccc1` [Compound D18, (S)-N-hydroxy-4-(2-(3-(2-methoxyphenyl)ureido)-2-phenylacetamido)benzamide], for which the IC50 with U937 cells came to 1310 ± 70 nM; with K562 cells, 1550 ± 50 nM; with HL60 cells, 3830 ± 290 nM; with MCF7 cells, 5140 ± 430 nM; with PC3 cells, 1510 ± 50 nM. The “cell permeability and intracellular HDAC inhibition” value in the data set on U937 cell line [1] is “cell permeable and can inhibit intracellular and even nuclear HDACs”. Also, in the data set on U937 cell line [1], the “acetylated tubulin level, 24h” value is listed as “reduced”.
In the case of `O=C(CCCCCCC(=O)Nc1ccccc1)NO` [SAHA, Suberoyl anilide hydroxamic acid, reference compound], the half-maximal inhibitory concentration (IC50) in the data set with K562 cells is 1860 ± 70 nM. Moreover, in the data set with U937 xenograft, the “mean weight of tumors” value is 2.00 g.
